≈ marks a conversion by molar mass, not a printed value. Where two headings read alike, the source gives them in different places.
Columns and labels:
[1] = tested on: S. aureus ATCC43300 biofilm formation; conditions: 4 μg/mL
Method: Bacterial biofilms created by the aggregation of bacteria is considered as one of the main reasons for the development of drug resistance. […] Subsequently, we further assessed the efficiency of 9h to eradicate the preformed biofilm. Matured S. aureus biofilm (grown for 24 h) was treated with compound 9h, and the rate of biofilm disruption was then assessed by the crystal violet staining assay.
Biofilm inhibition assay: S. aureus ATCC43300 was cultured (37 °C, 200 rpm) in MHB broth for 5 h and diluted to 1 × 10^6 CFU/mL. […] The planktonic supernatant cells were discarded and washed with PBS three times. Then, methanol (150 µL) was added to each well for 30 min. After discarding methanol, 0.1% crystal violet solution (150 µL) was added, and biofilms were stained for 15 min. Next, crystal violet solution was removed and washed with PBS three times. Finally, ethanol (150 µL) was pipetted into the wells, and the OD values were measured at 575 nm. The biofilm inhibition (%) = (ODcompound − ODblank)/(ODpositive control − ODblank) × 100%.

[2] = tested on: Acinetobacter baumannii ATCC19606; test: MIC, broth microdilution; assay type: cell-based; conditions: Acinetobacter baumannii, ATCC19606, read-out: MIC A. b. 19606
Method: (§1) All target derivatives were assessed for their in vitro antibacterial activities using a broth microdilution assay to test their minimum inhibitory concentrations (MICs) against six Gram-positive strains (S. aureus ATCC31007, S. aureus ATCC25923, S. aureus ATCC43300, E. faecalis ATCC29212, B. subtilis ATCC9372, and S. epidermidis ATCC12228) and four Gram-negative strains (A. baumannii ATCC19606, K. pneumonia ATCC10031, E. coli ATCC25922, and P. aeruginosa ATCC27853). These compounds were also evaluated for their hemolytic activities and membrane selectivity by determining their HC50 (the concentration required to lyse 50% of red blood cells) and SI (HC50/MICs) values, respectively, and vancomycin was used as the positive drug.
(§2) MICs of the derivatives were determined by the micro broth dilution method according to the American Clinical and Laboratory Standards Institute (CLSI) standards. Briefly, 2-fold serial dilutions of target compounds were prepared in 96-well plates containing TSB broth. An equal volume of bacterial suspension (10^6 CFU/mL) was then pipetted into each well, and the mixture was incubated at 37 °C for 24 h. […] All biological experiments were repeated three times.

[3] = tested on: Bacillus subtilis ATCC9372, penicillin-susceptible strain; test: MIC, broth microdilution; assay type: cell-based; conditions: Bacillus subtilis, ATCC9372, read-out: MIC B. s. 9372
Method: as §1, §2

[4] = tested on: Enterococcus faecalis ATCC29212, vancomycin-susceptible strain; test: MIC, broth microdilution; assay type: cell-based; conditions: Enterococcus faecalis, ATCC29212, read-out: MIC E. f. 29212
Method: as §1, §2

[5] = tested on: Escherichia coli ATCC25922, penicillin-susceptible strain; test: MIC, broth microdilution; assay type: cell-based; conditions: Escherichia coli, ATCC25922, read-out: MIC E. c. 25922
Method: as §1, §2

[6] = tested on: Klebsiella pneumonia ATCC10031; test: MIC, broth microdilution; assay type: cell-based; conditions: Klebsiella pneumoniae, ATCC10031, read-out: MIC K. p. 10031
Method: as §1, §2

[7] = tested on: Pseudomonas aeruginosa ATCC27853; test: MIC, broth microdilution; assay type: cell-based; conditions: Pseudomonas aeruginosa, ATCC27853, read-out: MIC P. a. 27853
Method: as §1, §2

[8] = tested on: Staphylococcus aureus ATCC25923, erythromycin-susceptible strain; test: MIC, broth microdilution; assay type: cell-based; conditions: Staphylococcus aureus, ATCC25923, read-out: MIC S. a. 25923
Method: as §1, §2

[9] = tested on: Staphylococcus aureus ATCC31007, penicillin-resistant strain; test: MIC, broth microdilution; assay type: cell-based; conditions: Staphylococcus aureus, ATCC31007, read-out: MIC S. a. 31007
Method: as §1, §2

[10] = tested on: Staphylococcus epidermidis ATCC12228, erythromycin-susceptible strain; test: MIC, broth microdilution; assay type: cell-based; conditions: Staphylococcus epidermidis, ATCC12228, read-out: MIC S. e. 12228
Method: as §1, §2

[11] = tested on: Staphylococcus aureus ATCC43300, methicillin-resistant strain; test: microbe, parasite or virus in culture; assay type: cell-based; conditions: for MIC: ATCC 43300 / MRSA, read-out: MIC S. a 43300
Method: as §1, §2

[12] = tested on: Enterococcus faecalis ATCC51299, vancomycin-resistant strain; test: MIC, broth microdilution; assay type: cell-based; conditions: Enterococcus faecalis, ATCC51299, read-out: MIC E. f. 51299
Method: as §2

[13] = tested on: Enterococcus faecium ATCC51559, vancomycin-resistant strain; test: MIC, broth microdilution; assay type: cell-based; conditions: Enterococcus faecium, ATCC51559, read-out: MIC E. f. 51559
Method: as §2

S. aureus ATCC4330 = test: microbe, parasite or virus in culture; assay type: cell-based; conditions: control compounds of the ROS assay
Method: Due to the presence of various biological enzymes in plasma, natural AMPs are susceptible to enzymatic degradation upon entering the bloods, leading to a loss of their antimicrobial activity. To evaluate the plasma stability of active compound 9h, we conducted a stability assay by determining their MBC (minimum bactericidal concentration) values in plasma and different blood components. […] The observed initial increase in the MBC value, followed by remaining unchanged, could potentially be attributed to the initial binding of compound 9h with plasma proteins, causing a reduction in its activity. Once this binding became saturated, the bactericidal activity of the compound remained stable, further indicating the good stability of compound 9h in plasma.
MBCs of the compounds were tested. Furthermore, MBCs of compounds in 50% plasma, 50% serum, and 50% blood suspension were tested. The MBC value is defined as the concentration at which the colony count is less than 5 after 18 h of incubation at 37 °C. All biological experiments were repeated three times.

S. aureus ATCC43300 [14] = test: ROS assay (DCFH-DA); assay type: cell-based; conditions: control compounds
Method: It is known that the disruption of bacterial cell membranes often causes the production of ROS in bacterial cells. The fluorescent probe DCFH-DA was used to monitor the level of intracellular ROS produced by S. aureus ATCC43300. DCFH-DA is initially non-fluorescent; however, it undergoes hydrolysis to DCFH upon entry into the cell. Subsequently, DCFH is converted to the fluorescent compound DCF when ROS are produced in the cells. […] The fluorescence intensity of 9h was about 8-fold higher than the PBS-treated group when the concentration of 9h increased 16 μg/mL.
Mid-log S. aureus ATCC43300 was collected and resuspended in PBS. Bacteria suspension (1.0 × 10^8 CFU/mL) was placed into a 96-well plate, and an equal volume of DCF-DA (10.0 μM) was mixed and incubated at 37 °C for 30 min. After incubation, the suspension was centrifuged (3500 rpm, 4 min), and the supernatant was removed and resuspended in PBS. […] The fluorescence intensity of each well was recorded by a microplate reader (Ex = 488 nm and Em = 530 nm). All biological experiments were repeated three times.

S. aureus ATCC43300 [15] = test: DNA leakage study; assay type: cell-based; conditions: control compound
Method: The destruction of bacterial cell membranes usually causes the leakage of macromolecules, including DNA and proteins. To investigate the effect of the compound 9h on the leakage of cytoplasmic contents, we performed DNA and protein leakage assays against S. aureus ATCC43300. The degree of damage to the bacterial cell membrane could be reflected by the concentrations of DNA and protein. The non-membrane-targeted antibiotic ciprofloxacin, membrane-targeted peptide melittin, and PBS were used as controls. […] A similar result were also observed in the leakage of protein with S. aureus (Figure 8C).
Mid-log S. aureus ATCC43300 was collected and resuspended in PBS (1.0 × 10^8 CFU/mL). […] The concentration of the protein was determined according to the method of the BCA assay kit (Thermo Fisher Scientific, Waltham, MA, USA), and the concentration of DNA in the supernatant was tested by a micro-spectrophotometer. All biological experiments were repeated three times.

S. aureus ATCC43300 [16] = test: Resistance development assay (serial passage); assay type: cell-based; conditions: at the 19th passage
Method: The rapid increase in bacterial resistance to antibiotics is a major challenge in clinical treatment, and in order to assess the drug resistance development for compound 9h, we performed a drug resistance assay against S. aureus ATCC43300. Norfloxacin was selected as the positive control. The S. aureus cells were incubated with sub-MIC (1/2 MIC) concentration of compound 9h and were serially passaged for a duration of 20 days.
Resistance was defined as a more than 4-fold increase in the tested compound in MIC when compared to the beginning value. Briefly, S. aureus ATCC43300 was cultured (37 °C, 200 rpm) in MHB broth for 5 h and diluted to 1 × 10^6 CFU/mL. Then, the bacteria were cultured with compound 9h at a sub-MIC concentration (1/2 MIC) for 18 h. The MICs were determined according to this method for consecutive 20 days. All biological experiments were repeated three times.

[17] = Staphylococcus aureus ATCC43300 (MRSA)

CC[C@H](C)[C@H](NC(=O)[C@H](CCCCN)NC(=O)[C@H](CCC(=O)O)NC(=O)[C@H](CCCCN)NC(=O)[C@H](CO)NC(=O)[C@H](CCCCN)NC(=O)[C@H](CCCNC(=N)N)NC(=O)[C@H](Cc1ccccc1)NC(=O)[C@H](Cc1ccccc1)NC(=O)[C@H](CC(=O)O)NC(=O)CNC(=O)[C@H](CC(C)C)NC(=O)[C@@H](N)CC(C)C)C(=O)NCC(=O)N[C@@H](CCCCN)C(=O)N[C@@H](CCC(=O)O)C(=O)N[C@@H](Cc1ccccc1)C(=O)N[C@@H](CCCCN)C(=O)N[C@@H](CCCNC(=N)N)C(=O)N[C@H](C(=O)N[C@H](C(=O)N[C@@H](CCC(N)=O)C(=O)N[C@@H](CCCNC(=N)N)C(=O)N[C@H](C(=O)N[C@@H](CCCCN)C(=O)N[C@@H](CC(=O)O)C(=O)N[C@@H](Cc1ccccc1)C(=O)N[C@@H](CC(C)C)C(=O)N[C@@H](CCCNC(=N)N)C(=O)N[C@@H](CC(N)=O)C(=O)N[C@@H](CC(C)C)C(=O)N[C@H](C(=O)N1CCC[C@H]1C(=O)N[C@@H](CCCNC(=N)N)C(=O)N[C@H](C(=O)N[C@@H](CCC(=O)O)C(=O)N[C@@H](CO)C(=O)O)[C@@H](C)O)C(C)C)[C@@H](C)CC)C(C)C)[C@@H](C)CC [LL-37, reference compound]
inhibition of S. aureus biofilm formation [1]: 55.41%

CN[C@H](CC(C)C)C(=O)N[C@H]1C(=O)N[C@@H](CC(N)=O)C(=O)N[C@H]2C(=O)N[C@H]3C(=O)N[C@H](C(=O)N[C@H](C(=O)O)c4cc(O)cc(O)c4-c4cc3ccc4O)[C@H](O)c3ccc(c(Cl)c3)Oc3cc2cc(c3O[C@@H]2O[C@H](CO)[C@@H](O)[C@H](O)[C@H]2O[C@H]2C[C@](C)(N)[C@H](O)[C@H](C)O2)Oc2ccc(cc2Cl)[C@H]1O [Van, vancomycin, reference compound]
MIC [2]: 16 µg/mL (≈ 11 µM)
MIC [3]: 0.5 µg/mL (≈ 0.345 µM)
MIC [4]: 2 µg/mL (≈ 1.38 µM)
MIC [5]: 128 µg/mL (≈ 88.3 µM)
MIC [6]: 128 µg/mL (≈ 88.3 µM)
MIC [7]: > 128 µg/mL
MIC [8]: 1 µg/mL (≈ 0.69 µM)
MIC [9]: 1 µg/mL (≈ 0.69 µM)
MIC [10]: 2 µg/mL (≈ 1.38 µM)
MIC ([11]; Staphylococcus aureus): 2 µg/mL (≈ 1.38 µM)
MIC [12]: 128 µg/mL (≈ 88.3 µM)
MIC [13]: 128 µg/mL (≈ 88.3 µM)

O=C(O)c1cn(C2CC2)c2cc(N3CCNCC3)c(F)cc2c1=O [ciprofloxacin, reference compound]
MIC [11, 17]: 0.25 µg/mL (≈ 0.754 µM)
MBC (S. aureus ATCC4330; Staphylococcus aureus, ATCC 4330 / ATCC 43300, against S. aureus ATCC43300, read-out: MBC): 2 µg/mL (≈ 6.04 µM)
effect on ROS fluorescence intensity (S. aureus ATCC43300 [14]): little change in fluorescence intensity
effect on DNA concentration (S. aureus ATCC43300 [15]): changed little

CC[C@H](C)[C@H](NC(=O)CN)C(=O)NCC(=O)N[C@@H](C)C(=O)N[C@H](C(=O)N[C@@H](CC(C)C)C(=O)N[C@@H](CCCCN)C(=O)N[C@H](C(=O)N[C@@H](CC(C)C)C(=O)N[C@H](C(=O)N[C@H](C(=O)NCC(=O)N[C@@H](CC(C)C)C(=O)N1CCC[C@H]1C(=O)N[C@@H](C)C(=O)N[C@@H](CC(C)C)C(=O)N[C@H](C(=O)N[C@@H](CO)C(=O)N[C@@H](Cc1c[nH]c2ccccc12)C(=O)N[C@H](C(=O)N[C@@H](CCCCN)C(=O)N[C@@H](CCCNC(=N)N)C(=O)N[C@@H](CCCCN)C(=O)N[C@@H](CCCNC(=N)N)C(=O)N[C@@H](CCC(N)=O)C(=O)N[C@@H](CCC(N)=O)C(N)=O)[C@@H](C)CC)[C@@H](C)CC)[C@@H](C)O)[C@@H](C)O)C(C)C)C(C)C [melittin, reference compound]
MIC S. a 43300 [11, 17]: 8 µg/mL (≈ 2.81 µM)
MBC (S. aureus ATCC4330; against S. aureus ATCC43300): 32 µg/mL (≈ 11.2 µM)
effect on ROS fluorescence intensity (S. aureus ATCC43300 [14]): dose-dependently increase the fluorescence intensity

CCn1cc(C(=O)O)c(=O)c2cc(F)c(N3CCNCC3)cc21 [norfloxacin, reference compound]
fold increase in MIC (S. aureus ATCC43300 [16]): 512 fold

Reference: paper PMC11350758, “Development of Xanthoangelol-Derived Compounds with Membrane-Disrupting Effects against Gram-Positive Bacteria” (Antibiotics, 2024)
